This note sets out measurements from US20240208992A1, “MACROCYCLES AS CFTR MODULATORS” (Idorsia Pharmaceuticals Ltd, priority 2021, published 2024).

As a reminder, the EC50 is the concentration that produces a half-maximal response. Broadly, the Emax is the maximal effect, on the per cent scale that the assay sets.

This test deals with human F508del-CFTR (Homo sapiens, UniProt P13569, DEL508-508). In words: F508del-CFTR cell surface expression (corrector activity), DiscoveRx ß-galactosidase complementation chemiluminescence assay in recombinant U2OS cell line.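 As to all read-outs here: U2OS cells co-expressing ProLink-tagged F508del-CFTR and a membrane-anchored enzyme acceptor, where more surface CFTR restores β-galactosidase activity measured by chemiluminescence.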 Particulars: U2OS cell line, 16h compound incubation; for EC50: EC50, F508del-CFTR cell surface expression, geomean values; for Emax: U2OS, in relation to the Emax of the corrector lumacaftor (=100%), arithmetic mean values.
human F508del-CFTR, sequence (P13569 with tags, fused parts or gaps DEL508-508): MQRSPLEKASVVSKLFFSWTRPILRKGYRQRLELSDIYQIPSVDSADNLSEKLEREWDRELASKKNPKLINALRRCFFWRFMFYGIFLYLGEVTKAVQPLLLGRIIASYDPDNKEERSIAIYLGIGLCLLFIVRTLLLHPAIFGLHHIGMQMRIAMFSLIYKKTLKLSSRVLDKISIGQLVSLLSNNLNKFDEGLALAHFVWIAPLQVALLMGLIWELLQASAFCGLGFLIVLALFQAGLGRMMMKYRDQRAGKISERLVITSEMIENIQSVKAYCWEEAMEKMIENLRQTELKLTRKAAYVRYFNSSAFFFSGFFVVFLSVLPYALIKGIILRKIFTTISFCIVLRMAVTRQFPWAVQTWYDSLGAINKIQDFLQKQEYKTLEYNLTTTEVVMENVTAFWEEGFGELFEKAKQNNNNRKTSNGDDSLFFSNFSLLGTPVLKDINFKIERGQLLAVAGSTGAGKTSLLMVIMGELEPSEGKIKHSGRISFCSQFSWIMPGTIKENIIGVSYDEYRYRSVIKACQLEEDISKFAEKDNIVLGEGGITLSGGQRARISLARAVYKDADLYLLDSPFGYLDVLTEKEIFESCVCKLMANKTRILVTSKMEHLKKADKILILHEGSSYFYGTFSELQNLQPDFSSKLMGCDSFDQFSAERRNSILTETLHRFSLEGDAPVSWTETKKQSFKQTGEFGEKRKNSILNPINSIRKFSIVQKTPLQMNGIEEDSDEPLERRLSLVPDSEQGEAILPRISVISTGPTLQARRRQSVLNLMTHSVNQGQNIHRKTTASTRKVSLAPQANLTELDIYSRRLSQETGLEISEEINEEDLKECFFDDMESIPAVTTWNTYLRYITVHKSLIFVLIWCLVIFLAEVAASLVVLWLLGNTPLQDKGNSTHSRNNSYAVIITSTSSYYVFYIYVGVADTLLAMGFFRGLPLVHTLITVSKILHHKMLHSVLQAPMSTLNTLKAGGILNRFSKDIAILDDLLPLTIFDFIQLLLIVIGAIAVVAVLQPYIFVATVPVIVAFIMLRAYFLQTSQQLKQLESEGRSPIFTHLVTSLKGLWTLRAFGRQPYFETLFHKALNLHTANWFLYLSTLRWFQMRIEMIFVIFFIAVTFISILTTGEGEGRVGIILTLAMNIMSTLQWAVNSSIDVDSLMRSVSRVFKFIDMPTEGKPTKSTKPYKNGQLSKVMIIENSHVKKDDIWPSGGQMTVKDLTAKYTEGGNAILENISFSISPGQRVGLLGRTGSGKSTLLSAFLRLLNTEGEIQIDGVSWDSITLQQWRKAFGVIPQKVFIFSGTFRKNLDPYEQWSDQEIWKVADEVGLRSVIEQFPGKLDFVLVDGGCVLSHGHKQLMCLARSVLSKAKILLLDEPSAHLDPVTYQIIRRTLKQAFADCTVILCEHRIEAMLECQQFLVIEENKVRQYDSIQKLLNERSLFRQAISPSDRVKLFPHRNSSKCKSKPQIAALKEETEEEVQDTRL

In the case of `COc1cc(OC)c2c(c1)OC[C@@H](Cc1ccccc1)NC(=O)CN(CCC1CCCCC1)C(=O)[C@H](C)N(C)C(=O)C[C@@H](C(=O)NCCc1ccc3c(c1)OCO3)NC2=O` [Example 272, (3R,9S,13S)-N-(2-(benzo[d][1,3]dioxol-5-yl)ethyl)-3-benzyl-7-(2-cyclohexylethyl)-16,18-dimethoxy-9,10-dimethyl-5,8,11,15-tetraoxo-2,3,4,5,6,7,8,9,10,11,12,13,14,15-tetradecahydrobenzo[p][1]oxa[4,7,10,14]tetraazacycloheptadecine-13-carboxamide], the EC50 was determined as 374 nM and the Emax was determined as 176%.
The like results for `COc1cccc(CCNC(=O)[C@@H]2CC(=O)N(C)[C@@H](C)C(=O)N(CCC3CCCCC3)CC(=O)N[C@H](Cc3ccccc3)COc3cc(OC)cc(OC)c3C(=O)N2)c1` [Example 273, (3R,9S,13S)-3-benzyl-7-(2-cyclohexylethyl)-16,18-dimethoxy-N-(3-methoxyphenethyl)-9,10-dimethyl-5,8,11,15-tetraoxo-2,3,4,5,6,7,8,9,10,11,12,13,14,15-tetradecahydrobenzo[p][1]oxa[4,7,10,14]tetraazacycloheptadecine-13-carboxamide] were, in that order, 365 nM and 169%.
On to `COc1cc(OC)c2c(c1)OC[C@@H](Cc1ccccc1)NC(=O)CN(CCC1CCCCC1)C(=O)[C@H](CC(C)C)N(C)C(=O)C[C@@H](C(=O)NCCc1ccc3c(c1)OCCC3)NC2=O` [Example 275, (3R,9S,13S)-3-benzyl-N-(2-(chroman-7-yl)ethyl)-7-(2-cyclohexylethyl)-9-isobutyl-16,18-dimethoxy-10-methyl-5,8,11,15-tetraoxo-2,3,4,5,6,7,8,9,10,11,12,13,14,15-tetradecahydrobenzo[p][1]oxa[4,7,10,14]tetraazacycloheptadecine-13-carboxamide], for which the EC50 was 148 nM and the Emax came out at 333%.
In the same order, the values of `COc1cc(OC)c2c(c1)OC[C@@H](Cc1ccccc1)NC(=O)CN(CCC1CCCCC1)C(=O)[C@H](CC(C)C)N(C)C(=O)C[C@@H](C(=O)NCCc1ccc3c(c1)OCC3)NC2=O` [Example 276, (3R,9S,13S)-3-benzyl-7-(2-cyclohexylethyl)-N-(2-(2,3-dihydrobenzofuran-6-yl)ethyl)-9-isobutyl-16,18-dimethoxy-10-methyl-5,8,11,15-tetraoxo-2,3,4,5,6,7,8,9,10,11,12,13,14,15-tetradecahydrobenzo[p][1]oxa[4,7,10,14]tetraazacycloheptadecine-13-carboxamide] are 91 nM and 333%.
In the same order, the values of `COc1cccc(CCNC(=O)[C@@H]2CC(=O)N(C)[C@@H](CC(C)C)C(=O)N(C)CC(=O)N[C@H](Cc3ccccc3)COc3cccc(F)c3C(=O)N2)c1` [Example 277, (3R,9S,13S)-3-benzyl-16-fluoro-9-isobutyl-N-(3-methoxyphenethyl)-7,10-dimethyl-5,8,11,15-tetraoxo-2,3,4,5,6,7,8,9,10,11,12,13,14,15-tetradecahydrobenzo[p][1]oxa[4,7,10,14]tetraazacycloheptadecine-13-carboxamide] are 830 nM and 134%.
The like results for `CC(C)C[C@H]1C(=O)N(C)CC(=O)N[C@H](Cc2ccccc2)COc2cccc(F)c2C(=O)N[C@H](C(=O)NCCc2ccc3c(c2)OCO3)CC(=O)N1C` [Example 278, (3R,9S,13S)-N-(2-(benzo[d][1,3]dioxol-5-yl)ethyl)-3-benzyl-16-fluoro-9-isobutyl-7,10-dimethyl-5,8,11,15-tetraoxo-2,3,4,5,6,7,8,9,10,11,12,13,14,15-tetradecahydrobenzo[p][1]oxa[4,7,10,14]tetraazacycloheptadecine-13-carboxamide] were, in that order, 709 nM and 167%.
Regarding `CC(C)C[C@H]1C(=O)N(C)CC(=O)N[C@H](Cc2ccccc2)COc2cccc(Cl)c2C(=O)N[C@H](C(=O)NCCc2ccc3c(c2)OCO3)CC(=O)N1C` [Example 279, (3R,9S,13S)-N-(2-(benzo[d][1,3]dioxol-5-yl)ethyl)-3-benzyl-16-chloro-9-isobutyl-7,10-dimethyl-5,8,11,15-tetraoxo-2,3,4,5,6,7,8,9,10,11,12,13,14,15-tetradecahydrobenzo[p][1]oxa[4,7,10,14]tetraazacycloheptadecine-13-carboxamide], the EC50 stood at 643 nM and the Emax was 112%.
The like results for `CCOc1cccc2c1C(=O)N[C@H](C(=O)NCCc1cccc(OC)c1)CC(=O)N(C)[C@@H](CC(C)C)C(=O)N1CCCC[C@@H]1C(=O)N[C@H](Cc1ccccc1)CO2` [Example 280, (7S,11S,20R,22aR)-20-benzyl-14-ethoxy-7-isobutyl-N-(3-methoxyphenethyl)-8-methyl-6,9,13,22-tetraoxo-1,3,4,6,7,8,9,10,11,12,13,19,20,21,22,22a-hexadecahydro-2H-benzo[p]pyrido[2,1-f][1]oxa[4,7,10,14]tetraazacycloheptadecine-11-carboxamide] were, in that order, 297 nM and 188%.
In the case of `COc1nccc2c1C(=O)N[C@H](C(=O)NCCc1ccc3c(c1)OCO3)CC(=O)N(C)[C@@H](CC(C)C)C(=O)N(CCC1CCCCC1)CC(=O)N[C@H](Cc1ccccc1)CO2` [Example 281, (3R,9S,13S)-N-(2-(benzo[d][1,3]dioxol-5-yl)ethyl)-3-benzyl-7-(2-cyclohexylethyl)-9-isobutyl-16-methoxy-10-methyl-5,8,11,15-tetraoxo-2,3,4,5,6,7,8,9,10,11,12,13,14,15-tetradecahydropyrido[3,4-p][1]oxa[4,7,10,14]tetraazacycloheptadecine-13-carboxamide], the EC50 was 110 nM and the Emax was 361%.
With `COc1cccc(CCNC(=O)[C@@H]2CC(=O)N(C)[C@@H](CC(C)C)C(=O)N(CCC3CCCCC3)CC(=O)N[C@H](Cc3ccccc3)COc3ccnc(OC)c3C(=O)N2)c1` [Example 282, (3R,9S,13S)-3-benzyl-7-(2-cyclohexylethyl)-9-isobutyl-16-methoxy-N-(3-methoxyphenethyl)-10-methyl-5,8,11,15-tetraoxo-2,3,4,5,6,7,8,9,10,11,12,13,14,15-tetradecahydropyrido[3,4-p][1]oxa[4,7,10,14]tetraazacycloheptadecine-13-carboxamide], the EC50 came out at 114 nM and the Emax was determined as 360%.
In the same order, the values of `CCOc1cccc2c1C(=O)N[C@H](C(=O)NCCc1ccc3c(c1)OCCO3)CC(=O)N(C)[C@@H](CC(C)C)C(=O)C1CCC[C@@H](N1)C(=O)N[C@H](Cc1ccccc1)CO2` [Example 283, (7S,11S,20R,22aR)-20-benzyl-N-(2-(2,3-dihydrobenzo[b][1,4]dioxin-6-yl)ethyl)-14-ethoxy-7-isobutyl-8-methyl-6,9,13,22-tetraoxo-1,3,4,6,7,8,9,10,11,12,13,19,20,21,22,22a-hexadecahydro-2H-benzo[p]pyrido[2,1-f][1]oxa[4,7,10,14]tetraazacycloheptadecine-11-carboxamide] are 272 nM and 231%.
On to `COc1cccc2c1C(=O)N[C@H](C(=O)NCCc1ccc3c(c1)OCO3)CC(=O)N(C)[C@@H](CC(C)C)C(=O)N(C[C@H]1CCCCO1)CC(=O)N[C@H](Cc1ccccc1)CO2` [Example 305, (3R,9S,13S)-N-(2-(benzo[d][1,3]dioxol-5-yl)ethyl)-3-benzyl-9-isobutyl-16-methoxy-10-methyl-5,8,11,15-tetraoxo-7-(((R)-tetrahydro-2H-pyran-2-yl)methyl)-2,3,4,5,6,7,8,9,10,11,12,13,14,15-tetradecahydrobenzo[p][1]oxa[4,7,10,14]tetraazacycloheptadecine-13-carboxamide], for which the concentration giving a half-maximal response (EC50) was found to be 533 nM and the Emax was found to be 123%.
Regarding `COc1cccc2c1C(=O)N[C@H](C(=O)NCCc1ccc3c(c1)OCO3)CC(=O)N(C)[C@@H](CC(C)C)C(=O)N(C[C@@H]1CCCCO1)CC(=O)N[C@H](Cc1ccccc1)CO2` [Example 306, (3R,9S,13S)-N-(2-(benzo[d][1,3]dioxol-5-yl)ethyl)-3-benzyl-9-isobutyl-16-methoxy-10-methyl-5,8,11,15-tetraoxo-7-(((S)-tetrahydro-2H-pyran-2-yl)methyl)-2,3,4,5,6,7,8,9,10,11,12,13,14,15-tetradecahydrobenzo[p][1]oxa[4,7,10,14]tetraazacycloheptadecine-13-carboxamide], the EC50 came to 923 nM and the Emax is 139%.
In the case of `COc1cccc2c1C(=O)N[C@H](C(=O)NCCc1ccc3c(c1)OCO3)CC(=O)N(C)[C@@H](CC1CCCC1)C(=O)N(C[C@H]1CCCCO1)CC(=O)N[C@H](Cc1ccccc1)CO2` [Example 307, (3R,9S,13S)-N-(2-(benzo[d][1,3]dioxol-5-yl)ethyl)-3-benzyl-9-(cyclopentylmethyl)-16-methoxy-10-methyl-5,8,11,15-tetraoxo-7-(((R)-tetrahydro-2H-pyran-2-yl)methyl)-2,3,4,5,6,7,8,9,10,11,12,13,14,15-tetradecahydrobenzo[p][1]oxa[4,7,10,14]tetraazacycloheptadecine-13-carboxamide], the EC50 amounted to 423 nM and the Emax turned out to be 113%.
The like results for `COc1cccc2c1C(=O)N[C@H](C(=O)NCCc1ccc3c(c1)OCO3)CC(=O)N(C)[C@@H](CC1CCCC1)C(=O)N(C[C@@H]1CCCCO1)CC(=O)N[C@H](Cc1ccccc1)CO2` [Example 308, (3R,9S,13S)-N-(2-(benzo[d][1,3]dioxol-5-yl)ethyl)-3-benzyl-9-(cyclopentylmethyl)-16-methoxy-10-methyl-5,8,11,15-tetraoxo-7-(((S)-tetrahydro-2H-pyran-2-yl)methyl)-2,3,4,5,6,7,8,9,10,11,12,13,14,15-tetradecahydrobenzo[p][1]oxa[4,7,10,14]tetraazacycloheptadecine-13-carboxamide] were, in that order, 469 nM and 103%.
